Patent US20090264420A1, “ORGANIC COMPOUNDS” (priority 2006, published 2009)

Molecular target: T1, CYP11B1 (Homo sapiens, UniProt P15538)
T1 construct: Thus, the NCI-H295R cells have Cyp 11 B1 (steroid 11 p-hydroxylase); host or cells: NCI-H295R
T1 sequence (P15538 25-503): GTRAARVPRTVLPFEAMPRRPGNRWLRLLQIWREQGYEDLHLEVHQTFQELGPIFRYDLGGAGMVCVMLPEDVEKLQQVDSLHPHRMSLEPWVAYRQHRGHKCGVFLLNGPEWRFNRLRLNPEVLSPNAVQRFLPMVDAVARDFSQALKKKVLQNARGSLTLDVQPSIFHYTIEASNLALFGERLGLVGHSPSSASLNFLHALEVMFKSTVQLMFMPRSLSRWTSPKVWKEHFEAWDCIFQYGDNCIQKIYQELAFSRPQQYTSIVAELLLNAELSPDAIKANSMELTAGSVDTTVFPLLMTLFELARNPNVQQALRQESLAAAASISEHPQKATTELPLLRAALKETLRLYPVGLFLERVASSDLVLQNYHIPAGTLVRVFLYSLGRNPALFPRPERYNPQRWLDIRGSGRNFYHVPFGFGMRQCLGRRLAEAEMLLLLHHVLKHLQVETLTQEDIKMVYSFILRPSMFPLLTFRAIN
Assay: CYP11B1 inhibition in NCI-H295R cells (steroid release by radioimmunoassay)
Type: cell-based
Settings: percentage of inhibitory rate at 100 nM; 11B1: CYP11B1
Excerpt: The in vitro inhibitory activities for CYP 11 B1 can be determined by the following assay.
The cell line NCI-H295R was originally isolated from an adrenocortical carcinoma and has been characterized in the literature through the stimulable secretion of steroid hormones and the presence of the enymes essential for steroidogenesis. Thus, the NCI-H295R cells have Cyp 11 B1 (steroid 11 p-hydroxylase). The cells show the physiological property of zonally undifferentiated human foetal adrenocortical cells which, however, have the capacity to produce the steroid hormones which are formed in the three, phenotypically distinguishable zones in the adult adrenal, cortex.
The NCI-H295R cells (American Type Culture Collection, ATCC, Rockville, Md., USA) are grown in Dulbeoco's Modified Eagle Ham F-12 Medium (DME/F12), which has been I supplemented with Ulroser SF Serum (Soprachem, Cergy-Saint-Christophe, France), insulin, transferrin, selenite (1-T-S, Becton Dickinson Biosiences, Franklin lakes, NJ, USA) and antibiotics in 75 cm^2 cell culture vessels at 37° C. and in a 95% air-5% carbon dioxide atmosphere. The cells are subsequently transferred for colony formation into a 24-well incubation vessel. They are cultivated there in DME/F12 medium, which is now supplemented with 0.1% bovine serum instead of Ultroser SF for 24 hours. The experiment is initiated by cultivating the cells in DME/F12 medium which is supplemented with 0.1% bovine serum albumin and test compound, in the presence or absence of cell stimulants, for 72 hours. The test substance is added in a concentration range from 0.2 nanomolar to […]. […]
The excretion of aldosterone, cortisol, corticosterone and estradiol/estrone into the culture medium can be detected and quantified by commercially available; specific monoclonal antibodies in radioimmunoassays in accordance with the manufacturer's instructions.
Inhibition of the release of certain steroids can be used as a measure of the respective enzyme inhibition by the added test compounds. The dose-dependent inhibition of enzymic activity by a compound is calculated by means of an inhibition plot which is characterized by an IC50.
The IC50 values for active test compounds are ascertained by a simple linear regression analysis in order to construct inhibition plots without data weighting. The inhibition plot is calculated by fting a 4-parameter logistic function to the raw data points using the least squares method. The equation of the 4-parameter logistic function is calculated as follows: Y=(d−a)/((1+(x/c)b))+aI where: a=minimum data level b gradient I c=ICED d=maximum data level x=inhibitor concentration.

SMILES	11B1 % I @ 100 nM [%]
CCC(C)(C)C1C(=O)N(Cc2cccc(F)c2)CCc2cncn21 (single isomer, unassigned) [Compound 2, 4-(1,1-Dimethyl-propyl)-6-(3-fluoro-benzyl)-7,8-dihydro-6H-2,3a,6-triaza-azulen-5-one]	100
N#Cc1ccc(CN2Cc3cncn3C(C3CC3)C2=O)cc1 (single isomer, unassigned) [Compound 8, 4-(5-Cyclopropyl-6-oxo-5,6-dihydro-8H-imidazo[1,5-a]pyrazin-7-ylmethyl)-benzonitrile]	95
CC(C)(C)C1C(=O)N(Cc2ccc(Cl)cc2)Cc2cncn21 (single isomer, unassigned) [Compound 6, 5-tert-Butyl-7-(4-chloro-benzyl)-7,8-dihydro-imidazo[1,5-a]pyrazin-6-one]	98
